Consider one molecule from patent publication US20210292710A1, “METHOD FOR ENHANCING IMMUNE FUNCTION OF IMMUNE CELL AND IMMUNE CELL LINE PRODUCED USING THE SAME” (INDUSTRY-ACADEMIC COOPERATION FOUNDATION, YONSEI UNIVERSITY, priority 2020, published 2021).

The test deals with GLUT1. Briefly: GLUT1 expression in T cell based on type of PI3K inhibitor. The source says:
More specifically, referring to (a) of FIG. 12, the results of GLUT1 expression according to the type of PI3K inhibitor in the helper T cell are shown. In this connection, the PI3K inhibitor may include BKM 120 that may inhibit all subtypes, CAL-101 that may inhibit only p110δ, IPI-145 capable of inhibiting p110γ and P110δ, BYLT719 capable of inhibiting only p110α, and TGX-211 capable of inhibiting only p110β.
Referring to (b) of FIG. 12, the results of GLUT1 expression according to the type of PI3K inhibitor in cytotoxic T cells are shown.

In the case of `CC[C@H](Nc1ncnc2[nH]cnc12)c1nc2cccc(F)c2c(=O)n1-c1ccccc1` [CAL-101, idelalisib], the “GLUT1 expression level versus BYLT719 and TGX-211 inhibitors” value (cytotoxic T cells) is “higher GLUT1 expression levels”; the “GLUT1 expression level versus BYLT719 and TGX-211 inhibitors” value (helper T cell) is recorded as “higher GLUT1 expression levels”.
